Values joined by “and” are separate entries in the source; they are usually repeats but may differ in a detail not shown here. Equal values may be shown once.

Test [1] concerns dogs with intracoronary microembolization-induced chronic HF. The test can be described thus: 3 months therapy with beta-blocker alone, beta-blocker + CCM or no therapy: LV EDV, ESV, EF. It is filed as in vivo, dog. The protocol: In a set of experiments, dogs with intracoronary microembolization-induced chronic HF (LV EF 30%-40%) were randomized to 3 months therapy with either BB (beta-blockers) alone (extended release metoprolol succinate, 100 mg once daily), extended release metoprolol succinate (100 mg, once daily) combined with CCM therapy, or to no therapy at all (Control). LV end-diastolic volume (EDV), end-systolic volume (ESV) and EF were measured before randomization (PRE) and after 3 months of therapy (POST). To determine “treatment effect”, the change A between PRE and POST therapy for each group was compared among the 3 study groups.

Test [2] deals with human malignant glioma cell lines. The following applies: advertised; cited from earlier work.
The next test relates to phospholamban serine-16. The test can be described thus: Phosphorylation of PLB at serine-16 in failed LV tissue homogenate with/without PK inhibitor and CCM signal (Western blot). It is filed as biochemical, dog. The following applies: for P-PLB serine-16: single samples. The protocol:
(§1) The tissue homogenate was prepared in the following manner. […] The homogenate was then filtered through 4 layers of cheese cloth. The resulting homogenate was stored in ice and its protein concentration was determined by the Lowry method.
(§2) The CCM signals were delivered to the homogenate as follows. The homogenate was diluted 2 fold in homogenate buffer and subsequently aliquotted 3 ml each in assay tubes. Assay tubes were divided into 2 sets (Set A and Set B), each subset consisting of […]. CCM signals were delivered for 10″, 30″, 1′, 5′, 30′, and 60′ in one of the sets, while the other set served as time control. The reaction was stopped by adding concentrated SDS. Protein assay on all the samples were performed by Lowry method.
(§3) Additional experiments of tissue homogenate were carried out in the presence and absence of protein kinese inhibitors. The homogenate was the same as above, from dogs with heart failure. […] CAS 62996-74-1.
In general terms: In western blotting, separated proteins are transferred to a membrane and probed.

Test [3] deals with phospholamban threonin-17. Briefly: Phosphorylation of PLB at threonine-17 in failed LV tissue homogenate with/without PK inhibitor and CCM signal (Western blot). It is filed as biochemical, dog. The following applies: for P-PLB threonin-17: single samples; for P-PLB threonin-17, Av: average. On the procedure:
as §1, §2, §3
The following tables summarize the experimental results for theronin-17: […]

The test system of the next test is normal cells. The following applies: advertised; cited from earlier work.
The subject of a further test is platelet aggregation. As to conditions: advertised; cited from earlier work.
The mark [4] stands for this setting: Control + PK Inhibitor, no CCM, 10 sec.
Setting [5] is: Control + PK Inhibitor, no CCM, 20 sec.
[6] abbreviates: Control + PK Inhibitor, no CCM, 30 sec.
Setting [7] is: PK Inhibitor + CCM delivered for 60 sec.

Turning to `COCCc1ccc(OCC(O)CNC(C)C)cc1` (stereo not drawn) [BB, metoprolol succinate], in test [1] (BB alone), the “LV EDV” value is “prevented the increase in EDV”, the “LV EF” value was “significantly increased EF” and the “LV ESV” value is “significantly reduced ESV”. Besides, in test [1] (BB combined with CCM), the “LV EDV” value is “prevented the increase in EDV”, the “LV EF” value is on record as “significantly increased EF” and the “LV ESV” value is “significantly reduced ESV”. The “Treatment effect (Δ) LV EF, PRE to POST” value in test [1] (BB combined with CCM therapy) turned out to be 12±1%.
Consider `CN[C@@H]1C[C@H]2O[C@@](C)([C@@H]1OC)n1c3ccccc3c3c4c(c5c6ccccc6n2c5c31)C(=O)NC4` [STAUROSPORIN], for which, in test [2], the apoptosis result was “Induces apoptosis”. The “P-PLB serine-16” value in the test on phospholamban serine-16 (setting [4]) was 8.0 and 9.0; in the test with phospholamban serine-16 (setting [5]), 12.2 and 14.0; in the test with phospholamban serine-16 (setting [6]) it was 6.8 and 9.7; with phospholamban serine-16 (PK Inhibitor + CCM delivered for 30 sec), 14.3 and 13.0; in the test with phospholamban serine-16 (setting [7]) it was 22.7. Also, in the test with phospholamban serine-16 (Control + PK Inhibitor, no CCM, 30 sec, average), the “P-PLB serine-16, Av” value is recorded as 9.4. Besides, the “response of serine-16 phosphorylation to CCM in presence of kinese inhibitor” value with phospholamban serine-16 (HF dog tissue homogenate) was “responded close to usual”. The “P-PLB threonin-17” value is 8.9 and 9.5 in test [3] (setting [4]); 8.2 in test [3] (setting [6]); 14.6 and 9.9 and 8.7 in test [3] (PK Inhibitor + CCM delivered for 10 sec); 8.3 and 15.0 in test [3] (PK Inhibitor + CCM delivered for 20 sec). Besides, the “P-PLB threonin-17, Av” value was 9.0 in test [3] (setting [5]) and 15.0 in test [3] (setting [7]). Also, the “response of threonin-17 phosphorylation to CCM in presence of kinese inhibitor” value in test [3] (HF dog tissue homogenate) was “reduced and delayed response”. The cell cycle arrest result with normal cells is recorded as “Arrests normal cells at the G1 checkpoint”. The “platelet aggregation induced by collagen or ADP” value in the test with platelet aggregation is “inhibits platelet aggregation”.

Values taken from patent publication US8352031B2, “Protein activity modification” (Impulse Dynamics NV, priority 2004, dated 2013).
